Patent EP4810509A1, “INSECT NEUROPEPTIDES 7” (Solasta Bio Limited, priority 2022, dated 2024)

Assays:
Type in all cases: in vivo
[1] = test system: Myzus persicae aphids; assay: Leaf dip assay (based on IRAC susceptibility test method 019), mortality assessment; conditions: unformulated, mortality assessed at 72, 96 and 120 hours, compared to negative control vehicle and Spirotetramat (Figures 6-8)
Protocol: The assay was carried out based on IRAC susceptibility test method 019 (https://irac-online.org/methods/aphids-adultnymphs/).
Fill a small 4 cm wide 3 cm high dish with a 1% agar treatment solution of the active chemical or control (ensuring 1 cm gap between the agar and the lid) and leave to set. Dip a 2.5 cm leaf disc into 3 ml of treatment solution allowing the treatment to coat the leaf. Leave the disc to dry for 1 hour and place onto the set agar. Place insects (Myzus persicae aphids) onto each of the leaf discs. Each unit is sealed with a close-fitting, ventilated lid. Place the agar dishes in a small plastic tray lined with moist tissue paper and ensure the water trays in the bottom of the incubator are filled with clean water and place within the incubator. An assessment of mortality is made at 72, 96 and 120 hours. Leaf dip assays were performed with SB-P-66, and compared to a negative control vehicle and a current commercial insecticide Spirotetramat. The activity of SB-P-66 is shown in Figures 6 and 7; SB-P-66 has good activity whilst being eco-friendly and targeted to specific pests unlike broad spectrum chemical insecticides such as Spirotetramat.

[2] = test system: Bumblebee; assay: Bee oral toxicity test (adapted from OECD Test No. 247: Bumblebee, Acute Oral Toxicity Test); conditions: % survival after 96 hours of application, compared with sucrose or vehicle and with Imidacloprid (Figure 9)
Protocol: Bee oral testing protocol was carried out adapted from OECD Test No. 247: Bumblebee, Acute Oral Toxicity Test. The toxicity of SB-P-66 was compared with a negative control of sucrose or vehicle, and with a current commercial insecticide Imidacloprid.

[3] = test system: Aphis fabae; assay: Field trials, naturally infested plants (PGRO, vining peas); conditions: unformulated, acting comparably to commercial insecticides (Figures 10, 13)
Protocol: (§1) A) and 16 days after second application (App.
(§2) Field trials for peptide SB-P-66, unformulated, against various insects were conducted by third-party organisations PGRO and AgriScience.

[4] = test system: Aphis gossypii; assay: Field trials, naturally infested plants (AgriScience, cotton and melon); conditions: unformulated, acting comparably to commercial insecticides (Figures 11, 12)
Protocol: as §1, §2

[5] = test system: Amrasca biguttula (leaf hopper); assay: Field trials, naturally infested plants; conditions: unformulated; over time; acting comparably to commercial insecticides (Figure 14)
Protocol: as §1, §2

[6] = test system: Myzus persicae; assay: Field trials; conditions: unformulated; acting comparably to commercial insecticides
Protocol: as §2

For “H-PAFSSWG-NH2 [SB-P-66, [Hy]-PAFSSWG-[NH2]]”, the “activity against Myzus persicae (mortality)” value [1] was “good activity”, the “bee oral toxicity (% survival)” value [2] was “far lower toxicity” and the “efficacy in field trials against Aphis fabae” value [3] was “good efficacy”. The “efficacy in field trials against Aphis gossypii” value [4] was “good efficacy”, the “efficacy in field trials against Amrasca biguttula” value [5] was “good efficacy” and the “efficacy in field trials against Myzus persicae” value [6] was “good efficacy”.
